In ChEMBL document CHEMBL1671859, “bla(IMP-4) in different genetic contexts in Enterobacteriaceae isolates from Australia” (2008):
In brackets after ≈: the same amount, converted by molar mass.

Tests used:
Assay type in all cases: functional
Klebsiella pneumoniae [1] = assay: Antibacterial activity against Klebsiella pneumoniae Kp1239 transconjugant harboring IncL/M plasmid and blaIMP-4-qacG2-aacA4-catB3 array by Etest method
Klebsiella pneumoniae [2] = assay: Antibacterial activity against Klebsiella pneumoniae Kp2730 transconjugant harboring IncL/M plasmid and blaIMP-4-qacG2-aacA4-catB3 and dfrA12-orfF-aadA2 arrays by Etest method
Citrobacter amalonaticus [3] = assay: Antibacterial activity against Citrobacter amalonaticus Ca3927 transconjugant harboring IncL/M plasmid and blaIMP-4-qacG2-aacA4-catB3 array by Etest method
Enterobacter cloacae [4] = assay: Antibacterial activity against Enterobacter cloacae El1573 transconjugant harboring IncL/M plasmid and blaIMP-4-qacG2-aacA4-catB3 array by Etest method
Klebsiella pneumoniae [5] = assay: Antibacterial activity against Klebsiella pneumoniae Kp7564 transconjugant harboring IncL/M plasmid and blaIMP-4-qacG2-aacA4-catB3 array by Etest method
Citrobacter amalonaticus [6] = assay: Antibacterial activity against Citrobacter amalonaticus Ca38009 transconjugant harboring IncL/M plasmid and blaIMP-4-qacG2-aacA4-catB3 array by Etest method
Klebsiella pneumoniae [7] = assay: Antibacterial activity against Klebsiella pneumoniae Kp38009 transconjugant harboring IncL/M plasmid and blaIMP-4-qacG2-aacA4-catB3 array by Etest method
Klebsiella pneumoniae [8] = assay: Antibacterial activity against Klebsiella pneumoniae Kp38045 transconjugant harboring IncL/M plasmid and blaIMP-4-qacG2-aacA4-catB3 array by Etest method
Escherichia coli [9] = assay: Antibacterial activity against Escherichia coli Ec9381 transconjugant harboring IncL/M plasmid and blaIMP-4-qacG2-aacA4-catB3 array by Etest method
Morganella morganii = assay: Antibacterial activity against Morganella morganii Mm1229 transconjugant harboring IncL/M plasmid and blaIMP-4-qacG2-aacA4-catB3 array by Etest method
Citrobacter amalonaticus [10] = assay: Antibacterial activity against Citrobacter amalonaticus isolate Ca3927 harboring IncL/M plasmid and blaIMP-4-qacG2-aacA4-catB3 array by Etest method
Serratia marcescens [11] = assay: Antibacterial activity against Serratia marcescens isolate Sm2723 harboring IncL/M plasmid and blaIMP-4-qacG2-aacA4-catB3 array by Etest method
Citrobacter amalonaticus [12] = assay: Antibacterial activity against Citrobacter amalonaticus isolate Ca38009 harboring IncL/M plasmid and blaIMP-4-qacG2-aacA4-catB3 array by Etest method
Klebsiella pneumoniae [13] = assay: Antibacterial activity against Klebsiella pneumoniae isolate Kp38045 harboring IncL/M plasmid and blaIMP-4-qacG2-aacA4-catB3 array by Etest method
Klebsiella pneumoniae [14] = assay: Antibacterial activity against Klebsiella pneumoniae isolate Kp3799 harboring IncL/M plasmid and blaIMP-4-qacG2-aacA4-catB3 array by Etest method
Klebsiella oxytoca [15] = assay: Antibacterial activity against Klebsiella oxytoca isolate Ko0426 harboring IncL/M plasmid and blaIMP-4-qacG2-aacA4-catB3 array by Etest method
Klebsiella oxytoca [16] = assay: Antibacterial activity against Klebsiella oxytoca isolate Ko1156 harboring IncL/M plasmid and blaIMP-4-qacG2-aacA4-catB3 array by Etest method
Citrobacter freundii = assay: Antibacterial activity against Citrobacter freundii isolate Cf1614 harboring IncL/M plasmid and blaIMP-4-qacG2-aacA4-catB3 array by Etest method
Klebsiella pneumoniae [17] = assay: Antibacterial activity against Klebsiella pneumoniae isolate Kp149 harboring IncA/C plasmid and blaIMP-4-qacG2-aacA4-catB3 array by Etest method
Serratia marcescens [18] = assay: Antibacterial activity against Serratia marcescens isolate Sm203 harboring IncA/C plasmid and blaIMP-4-qacG2-aacA4-catB3 array by Etest method
Escherichia coli [19] = assay: Antibacterial activity against Escherichia coli isolate Ec211 harboring IncA/C plasmid and blaIMP-4-qacG2-aacA4-catB3 array by Etest method
Escherichia coli [20] = assay: Antibacterial activity against Escherichia coli isolate Ec221 harboring IncA/C plasmid and blaIMP-4-qacG2-aacA4-catB3 array by Etest method
Acinetobacter = assay: Antibacterial activity against Acinetobacter isolate A74510 harboring blaIMP-4-qacG2-aacA4-catB3 array by Etest method
Acinetobacter baumannii = assay: Antibacterial activity against Acinetobacter baumannii isolate AbN450 harboring […]-qacG2-aacA4-catB3 array by Etest method
Klebsiella pneumoniae [21] = assay: Antibacterial activity against Klebsiella pneumoniae isolate Kp1239 harboring IncL/M plasmid and blaIMP-4-qacG2-aacA4-catB3 array by Etest method in presence of clavulanic acid
Enterobacter cloacae [22] = assay: Antibacterial activity against Enterobacter cloacae isolate El3518 harboring IncL/M plasmid and blaIMP-4-qacG2-aacA4-catB3 array by Etest method in presence of clavulanic acid
Citrobacter amalonaticus [23] = assay: Antibacterial activity against Citrobacter amalonaticus isolate Ca3927 harboring IncL/M plasmid and blaIMP-4-qacG2-aacA4-catB3 array by Etest method in presence of clavulanic acid
Enterobacter cloacae [24] = assay: Antibacterial activity against Enterobacter cloacae isolate El1573 harboring IncL/M plasmid and blaIMP-4-qacG2-aacA4-catB3 array by Etest method in presence of clavulanic acid
Citrobacter amalonaticus [25] = assay: Antibacterial activity against Citrobacter amalonaticus isolate Ca38009 harboring IncL/M plasmid and blaIMP-4-qacG2-aacA4-catB3 array by Etest method in presence of clavulanic acid
Enterobacter cloacae [26] = assay: Antibacterial activity against Enterobacter cloacae isolate El3799 harboring IncL/M plasmid and blaIMP-4-qacG2-aacA4-catB3 array by Etest method in presence of clavulanic acid
Klebsiella pneumoniae [27] = assay: Antibacterial activity against Klebsiella pneumoniae isolate Kp3799 harboring IncL/M plasmid and blaIMP-4-qacG2-aacA4-catB3 array by Etest method in presence of clavulanic acid
Klebsiella pneumoniae [28] = assay: Antibacterial activity against Klebsiella pneumoniae isolate Kp4614 in presence of clavulanic acid
Escherichia coli [29] = assay: Antibacterial activity against Escherichia coli isolate Ec158 harboring IncA/C plasmid and blaIMP-4-qacG2-aacA4-catB3 array by Etest method in presence of clavulanic acid
Serratia marcescens [30] = assay: Antibacterial activity against Serratia marcescens isolate Sm203 harboring IncA/C plasmid and blaIMP-4-qacG2-aacA4-catB3 array by Etest method in presence of clavulanic acid
Klebsiella pneumoniae [31] = assay: Antibacterial activity against Klebsiella pneumoniae isolate Kp266 harboring IncA/C plasmid and blaIMP-4-qacG2-aacA4-catB3 array by Etest method in presence of clavulanic acid
Enterobacter cloacae [32] = assay: Antibacterial activity against Enterobacter cloacae isolate El216 harboring IncA/C plasmid and blaIMP-4-qacG2-aacA4-catB3 array by Etest method in presence of clavulanic acid
Escherichia coli [33] = assay: Antibacterial activity against Escherichia coli isolate Ec221 harboring IncA/C plasmid and blaIMP-4-qacG2-aacA4-catB3 array by Etest method in presence of clavulanic acid
Citrobacter youngae = assay: Antibacterial activity against Citrobacter youngae isolate CyB38 harboring blaIMP-4-qacG2-aacA4-catB3 array by Etest method in presence of clavulanic acid
Klebsiella pneumoniae [34] = assay: Antibacterial activity against Klebsiella pneumoniae Kp3799 transconjugant harboring IncL/M plasmid and blaIMP-4-qacG2-aacA4-catB3 array by Etest method in presence of clavulanic acid
Klebsiella oxytoca [35] = assay: Antibacterial activity against Klebsiella oxytoca Ko238 transconjugant harboring IncA/C plasmid and blaIMP-4-qacG2-aacA4-catB3 array by Etest method in presence of clavulanic acid

C[C@@H](O)[C@H]1C(=O)N2C(C(=O)O)=C(SCCNC=N)C[C@H]12 [IMIPENEM ANHYDROUS]
MIC (Klebsiella pneumoniae [1]): 2 µg/mL (≈ 6.68 µM)
MIC (Klebsiella pneumoniae [2]): 2 µg/mL (≈ 6.68 µM)
MIC (Citrobacter amalonaticus [3]): ≤ 1 µg/mL
MIC (Enterobacter cloacae [4]): 2 µg/mL (≈ 6.68 µM)
MIC (Klebsiella pneumoniae [5]): 2 µg/mL (≈ 6.68 µM)
MIC (Citrobacter amalonaticus [6]): 2 µg/mL (≈ 6.68 µM)
MIC (Klebsiella pneumoniae [7]): ≤ 1 µg/mL
MIC (Klebsiella pneumoniae [8]): 2 µg/mL (≈ 6.68 µM)
MIC (Escherichia coli [9]): ≤ 1 µg/mL
MIC (Morganella morganii): 2 µg/mL (≈ 6.68 µM)
MIC (Citrobacter amalonaticus [10]): 2 µg/mL (≈ 6.68 µM)
MIC (Serratia marcescens [11]): 1.5 µg/mL (≈ 5.01 µM)
MIC (Citrobacter amalonaticus [12]): 1.5 µg/mL (≈ 5.01 µM)
MIC (Klebsiella pneumoniae [13]): 0.75 µg/mL (≈ 2.51 µM)
MIC (Klebsiella pneumoniae [14]): 4 µg/mL (≈ 13.4 µM)
MIC (Klebsiella oxytoca [15]): 4 µg/mL (≈ 13.4 µM)
MIC (Klebsiella oxytoca [16]): 0.75 µg/mL (≈ 2.51 µM)
MIC (Citrobacter freundii): 4 µg/mL (≈ 13.4 µM)
MIC (Klebsiella pneumoniae [17]): 8 µg/mL (≈ 26.7 µM)
MIC (Serratia marcescens [18]): 4 µg/mL (≈ 13.4 µM)
MIC (Escherichia coli [19]): 4 µg/mL (≈ 13.4 µM)
MIC (Escherichia coli [20]): 8 µg/mL (≈ 26.7 µM)
MIC (Acinetobacter): > 8 µg/mL
MIC (Acinetobacter baumannii): > 8 µg/mL

CO/N=C(\C(=O)N[C@@H]1C(=O)N2C(C(=O)O)=C(COC(C)=O)CS[C@H]12)c1csc(N)n1 [CEFOTAXIME]
MIC (Klebsiella pneumoniae [1]): 32 µg/mL (≈ 70.3 µM)
MIC (Klebsiella pneumoniae [2]): 32 µg/mL (≈ 70.3 µM)
MIC (Citrobacter amalonaticus [3]): 32 µg/mL (≈ 70.3 µM)
MIC (Enterobacter cloacae [4]): 16 µg/mL (≈ 35.1 µM)
MIC (Klebsiella pneumoniae [5]): 32 µg/mL (≈ 70.3 µM)
MIC (Citrobacter amalonaticus [6]): 16 µg/mL (≈ 35.1 µM)
MIC (Klebsiella pneumoniae [7]): 32 µg/mL (≈ 70.3 µM)
MIC (Klebsiella pneumoniae [8]): 32 µg/mL (≈ 70.3 µM)
MIC (Escherichia coli [9]): 32 µg/mL (≈ 70.3 µM)
MIC (Morganella morganii): 32 µg/mL (≈ 70.3 µM)
MIC (Citrobacter amalonaticus [10]): > 32 µg/mL
MIC (Serratia marcescens [11]): > 32 µg/mL
MIC (Citrobacter amalonaticus [12]): > 32 µg/mL
MIC (Klebsiella pneumoniae [13]): 32 µg/mL (≈ 70.3 µM)
MIC (Klebsiella pneumoniae [14]): > 32 µg/mL
MIC (Klebsiella oxytoca [15]): 32 µg/mL (≈ 70.3 µM)
MIC (Klebsiella oxytoca [16]): 32 µg/mL (≈ 70.3 µM)
MIC (Citrobacter freundii): > 32 µg/mL
MIC (Klebsiella pneumoniae [17]): > 32 µg/mL
MIC (Serratia marcescens [18]): > 32 µg/mL
MIC (Escherichia coli [19]): > 32 µg/mL
MIC (Escherichia coli [20]): > 32 µg/mL
MIC (Acinetobacter): > 32 µg/mL
MIC (Acinetobacter baumannii): > 32 µg/mL

CC1(C)S[C@@H]2[C@H](NC(=O)[C@H](N)c3ccc(O)cc3)C(=O)N2[C@H]1C(=O)O [AMOXICILLIN]
MIC (Klebsiella pneumoniae [21]): > 16 µg/mL
MIC (Enterobacter cloacae [22]): > 16 µg/mL
MIC (Citrobacter amalonaticus [23]): > 16 µg/mL
MIC (Enterobacter cloacae [24]): > 16 µg/mL
MIC (Citrobacter amalonaticus [25]): > 16 µg/mL
MIC (Enterobacter cloacae [26]): > 16 µg/mL
MIC (Klebsiella pneumoniae [27]): > 16 µg/mL
MIC (Klebsiella pneumoniae [28]): > 16 µg/mL
MIC (Escherichia coli [29]): > 16 µg/mL
MIC (Serratia marcescens [30]): > 16 µg/mL
MIC (Klebsiella pneumoniae [31]): > 16 µg/mL
MIC (Enterobacter cloacae [32]): > 16 µg/mL
MIC (Escherichia coli [33]): > 16 µg/mL
MIC (Citrobacter youngae): > 16 µg/mL
MIC (Klebsiella pneumoniae [34]): > 16 µg/mL
MIC (Klebsiella oxytoca [35]): > 16 µg/mL

GENTAMICIN
MIC (Klebsiella pneumoniae [1]): > 8 µg/mL
MIC (Klebsiella pneumoniae [2]): > 8 µg/mL
MIC (Citrobacter amalonaticus [3]): > 8 µg/mL
MIC (Enterobacter cloacae [4]): > 8 µg/mL
MIC (Klebsiella pneumoniae [5]): > 8 µg/mL
MIC (Citrobacter amalonaticus [6]): > 8 µg/mL
MIC (Klebsiella pneumoniae [7]): > 8 µg/mL
MIC (Klebsiella pneumoniae [8]): > 8 µg/mL
MIC (Escherichia coli [9]): > 8 µg/mL
MIC (Morganella morganii): > 8 µg/mL
MIC (Citrobacter amalonaticus [10]): > 8 µg/mL
MIC (Serratia marcescens [11]): > 8 µg/mL
MIC (Citrobacter amalonaticus [12]): > 8 µg/mL
MIC (Klebsiella pneumoniae [13]): > 8 µg/mL
MIC (Klebsiella pneumoniae [14]): > 8 µg/mL
MIC (Klebsiella oxytoca [15]): > 8 µg/mL
MIC (Klebsiella oxytoca [16]): > 8 µg/mL
MIC (Citrobacter freundii): > 8 µg/mL
MIC (Klebsiella pneumoniae [17]): > 8 µg/mL
MIC (Serratia marcescens [18]): > 8 µg/mL
MIC (Escherichia coli [19]): > 8 µg/mL
MIC (Escherichia coli [20]): < 2 µg/mL
MIC (Acinetobacter): > 8 µg/mL
MIC (Acinetobacter baumannii): > 8 µg/mL

NC[C@H]1O[C@H](O[C@H]2[C@H](O)[C@@H](O[C@H]3O[C@H](CO)[C@@H](O)[C@H](N)[C@H]3O)[C@H](N)C[C@@H]2N)[C@H](N)C[C@@H]1O [TOBRAMYCIN]
MIC (Klebsiella pneumoniae [1]): 8 µg/mL (≈ 17.1 µM)
MIC (Klebsiella pneumoniae [2]): 8 µg/mL (≈ 17.1 µM)
MIC (Citrobacter amalonaticus [3]): 8 µg/mL (≈ 17.1 µM)
MIC (Enterobacter cloacae [4]): 8 µg/mL (≈ 17.1 µM)
MIC (Klebsiella pneumoniae [5]): 8 µg/mL (≈ 17.1 µM)
MIC (Citrobacter amalonaticus [6]): 8 µg/mL (≈ 17.1 µM)
MIC (Klebsiella pneumoniae [7]): 8 µg/mL (≈ 17.1 µM)
MIC (Klebsiella pneumoniae [8]): 8 µg/mL (≈ 17.1 µM)
MIC (Escherichia coli [9]): 8 µg/mL (≈ 17.1 µM)
MIC (Morganella morganii): 8 µg/mL (≈ 17.1 µM)
MIC (Citrobacter amalonaticus [10]): > 8 µg/mL
MIC (Serratia marcescens [11]): > 8 µg/mL
MIC (Citrobacter amalonaticus [12]): > 8 µg/mL
MIC (Klebsiella pneumoniae [13]): 8 µg/mL (≈ 17.1 µM)
MIC (Klebsiella pneumoniae [14]): > 8 µg/mL
MIC (Klebsiella oxytoca [15]): > 8 µg/mL
MIC (Klebsiella oxytoca [16]): > 8 µg/mL
MIC (Citrobacter freundii): > 8 µg/mL
MIC (Klebsiella pneumoniae [17]): > 8 µg/mL
MIC (Serratia marcescens [18]): > 8 µg/mL
MIC (Escherichia coli [19]): > 8 µg/mL
MIC (Escherichia coli [20]): 8 µg/mL (≈ 17.1 µM)
MIC (Acinetobacter): > 8 µg/mL
MIC (Acinetobacter baumannii): > 8 µg/mL
